In patent US20250163104A1, “MACROCYCLIC IMMUNOMODULATORS” (priority 2021, published 2025):
pIC50: −log10 of the molar value. Where a SMILES comes first, the peptide text is derived from it. Bridges are numbered along the chain shown (N, C = ends). [ ]: non-standard residue; d: D form. The star is where a group is joined. Phe(4-COOH) = N[C@@H](Cc1ccc(C(=O)O)cc1)C(=O)O; Bip = N[C@@H](Cc1ccc(-c2ccccc2)cc1)C(=O)O; 4Pal = N[C@@H](Cc1ccncc1)C(=O)O; Cha = N[C@@H](CC1CCCCC1)C(=O)O; Carboxymethyl = O=C(O)C*; Nle = CCCC[C@H](N)C(=O)O; Orn = NCCC[C@H](N)C(=O)O; Dab = NCC[C@H](N)C(=O)O; Dap = NC[C@H](N)C(=O)O

Each molecule was assayed against T1, human PD-1 / PD-L1-Ig binding on Jurkat cell line over-expressing human PD-1 (Jurkat-PD-1) (Homo sapiens, UniProt Q15116) (assay: Jurkat-PD-1 Cell Binding High-Content Screening Assay (CBA)). Details: Jurkat HPD1_PDL1 IC50, Jurkat-PD-1 cells, PE-labeled PD-L1-Ig 20 nM final.
T1 construct: expressed in transfected cells; host or cells: Jurkat
T1 sequence (Q15116 25-288): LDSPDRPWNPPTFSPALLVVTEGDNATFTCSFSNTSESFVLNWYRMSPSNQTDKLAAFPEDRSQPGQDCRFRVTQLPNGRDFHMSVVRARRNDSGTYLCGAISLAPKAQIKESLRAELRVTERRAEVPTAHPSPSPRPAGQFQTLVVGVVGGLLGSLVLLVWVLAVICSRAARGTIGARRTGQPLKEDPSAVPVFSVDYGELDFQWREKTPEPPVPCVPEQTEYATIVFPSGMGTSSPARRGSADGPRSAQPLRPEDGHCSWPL
Assay type: cell-based
Outline: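 PE-PD-L1-Ig 20 nM final; cells in DMEM/10% FCS; cpd pre-incubation 2 h, 37° C; ligand 1 h; PFA fix + Hoechst 33342; high-content imaging read-out.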

Row | SMILES | pIC50
1 | CC(C)C[C@@H]1NC(=O)[C@H](Cc2c[nH]c3ccccc23)NC(=O)[C@H](CC(=O)O)NC(=O)[C@H](Cc2ccc(OCC(=O)O)cc2)NC(=O)[C@H](CN)NC(=O)CSC[C@@H](C(=O)NCC(N)=O)NC(=O)[C@H](CO)NC(=O)[C@H](C(C)C)NC(=O)[C@H](CC2CCCCC2)NC(=O)[C@H](CC(N)=O)NC(=O)[C@@H](CC(C)C)NC(=O)[C@H](CN)NC(=O)[C@H](C(C)C)NC(=O)[C@H](Cc2ccc(-c3ccccc3)cc2)NC1=O [Compound 1394] ({CH2CO}-[Dap]Y(Carboxymethyl)DWL[Bip]V[Dap][dL]N[Cha]VSCG-NH2; thioether N-14) | 8.12

Same assay, conditions: Jurkat-PD-1 cells, PE-labeled PD-L1-Ig 20 nM final; read-out: Jurkat HPD1_PDL1 IC50

Row | SMILES | pIC50
2 | CC(C)C[C@H]1NC(=O)[C@H](CCCN)NC(=O)[C@H](CCN)NC(=O)[C@H](Cc2ccc(-c3ccccc3)cc2)NC(=O)[C@H](C(C)C)NC(=O)[C@H](Cc2c[nH]c3ccccc23)NC(=O)[C@H](CC(=O)O)NC(=O)[C@H](Cc2ccncc2)NC(=O)[C@H](CN)NC(=O)CSC[C@@H](C(=O)N[C@@H](C)C(N)=O)NC(=O)[C@H]([C@@H](C)O)NC(=O)[C@H](C(C)C)NC(=O)[C@H](CC2CCCCC2)NC(=O)[C@H](CCN)NC1=O [Compound 1387] | 7.60
3 | CC(C)C[C@H]1NC(=O)[C@H](CCCN)NC(=O)[C@H](CN)NC(=O)[C@H](Cc2ccc(-c3ccccc3)cc2)NC(=O)[C@H](C(C)C)NC(=O)[C@H](Cc2c[nH]c3ccccc23)NC(=O)[C@H](CC(=O)O)NC(=O)[C@H](Cc2ccncc2)NC(=O)[C@H](CN)NC(=O)CSC[C@@H](C(=O)N[C@@H](C)C(N)=O)NC(=O)[C@H]([C@@H](C)O)NC(=O)[C@H](C(C)C)NC(=O)[C@H](CC2CCCCC2)NC(=O)[C@H](CCN)NC1=O [Compound 1388] | 7.59
4 | CC(C)C[C@@H]1NC(=O)[C@H](Cc2c[nH]c3ccccc23)NC(=O)[C@H](CC(=O)O)NC(=O)[C@H](Cc2ccc(O)cc2)NC(=O)[C@H](Cc2ccccc2)NC(=O)CSC[C@@H](C(=O)NCC(N)=O)NC(=O)[C@H](CO)NC(=O)[C@H](C(C)C)NC(=O)[C@H](CC2CCCCC2)NC(=O)[C@H](CC(N)=O)NC(=O)[C@@H](CC(C)C)NC(=O)[C@H](CN)NC(=O)[C@H](C(C)C)NC(=O)[C@H](Cc2ccc(-c3ccccc3)cc2)NC1=O [Compound 1392] ({CH2CO}-FYDWL[Bip]V[Dap][dL]N[Cha]VSCG-NH2; thioether N-14) | 7.11
5 | CC(C)C[C@@H]1NC(=O)[C@H](Cc2c[nH]c3ccccc23)NC(=O)[C@H](CC(=O)O)NC(=O)[C@H](Cc2ccc(C(=O)O)cc2)NC(=O)[C@H](Cc2ccc(OCC(=O)O)cc2)NC(=O)CSC[C@@H](C(=O)NCC(N)=O)NC(=O)[C@H](CO)NC(=O)[C@H](C(C)C)NC(=O)[C@H](CC2CCCCC2)NC(=O)[C@H](CC(N)=O)NC(=O)[C@@H](CC(C)C)NC(=O)[C@H](CN)NC(=O)[C@H](C(C)C)NC(=O)[C@H](Cc2ccc(-c3ccccc3)cc2)NC1=O [Compound 1393] ({CH2CO}-Y(Carboxymethyl)[Phe(4-COOH)]DWL[Bip]V[Dap][dL]N[Cha]VSCG-NH2; thioether N-14) | 7.60
6 | CCCC[C@@H]1NC(=O)[C@H](CC(N)=O)NC(=O)[C@@H](CC(C)C)NC(=O)[C@H](CN)NC(=O)[C@H](C(C)C)NC(=O)[C@H](Cc2ccc(-c3ccccc3)cc2)NC(=O)[C@H](CC(C)C)NC(=O)[C@H](Cc2c[nH]c3ccccc23)NC(=O)[C@H](CC(=O)O)NC(=O)[C@H](Cc2ccc(O)cc2)NC(=O)[C@H](Cc2ccccc2)NC(=O)CSC[C@@H](C(=O)NCC(N)=O)NC(=O)[C@H](CO)NC(=O)[C@H](C(C)C)NC1=O [Compound 1397] ({CH2CO}-FYDWL[Bip]V[Dap][dL]N[Nle]VSCG-NH2; thioether N-14) | 7.26
7 | CCCC[C@@H]1NC(=O)[C@H](CC(N)=O)NC(=O)[C@@H](CC(C)C)NC(=O)[C@H](CN)NC(=O)[C@H](C(C)C)NC(=O)[C@H](Cc2ccc(-c3ccccc3)cc2)NC(=O)[C@H](CC(C)C)NC(=O)[C@H](Cc2c[nH]c3ccccc23)NC(=O)[C@H](CC(=O)O)NC(=O)[C@H](Cc2ccc(C(=O)O)cc2)NC(=O)[C@H](Cc2ccc(OCC(=O)O)cc2)NC(=O)CSC[C@@H](C(=O)NCC(N)=O)NC(=O)[C@H](CO)NC(=O)[C@H](C(C)C)NC1=O [Compound 1398] ({CH2CO}-Y(Carboxymethyl)[Phe(4-COOH)]DWL[Bip]V[Dap][dL]N[Nle]VSCG-NH2; thioether N-14) | 7.63
8 | CCCC[C@@H]1NC(=O)[C@H](CC(N)=O)NC(=O)[C@@H](CC(C)C)NC(=O)[C@H](CN)NC(=O)[C@H](C(C)C)NC(=O)[C@H](Cc2ccc(-c3ccccc3)cc2)NC(=O)[C@H](CC(C)C)NC(=O)[C@H](Cc2c[nH]c3ccccc23)NC(=O)[C@H](CC(=O)O)NC(=O)[C@H](Cc2ccncc2)NC(=O)[C@H](CN)NC(=O)CSC[C@@H](C(=O)NCC(N)=O)NC(=O)[C@H](CO)NC(=O)[C@H](C(C)C)NC1=O [Compound 1400] ({CH2CO}-[Dap][4Pal]DWL[Bip]V[Dap][dL]N[Nle]VSCG-NH2; thioether N-14) | 7.54

The next lines start with the values.

Row | pIC50 | SMILES
9 | 8.21 | CC(C)C[C@H]1NC(=O)[C@H](CCCN)NC(=O)[C@H](CCCCN)NC(=O)[C@H](Cc2ccc(-c3ccccc3)cc2)NC(=O)[C@H](C(C)C)NC(=O)[C@H](Cc2c[nH]c3ccccc23)NC(=O)[C@H](CC(=O)O)NC(=O)[C@H](Cc2ccc(C(=O)O)cc2)NC(=O)[C@H](Cc2ccc(OCC(=O)O)cc2)NC(=O)CSC[C@@H](C(=O)N[C@@H](C)C(N)=O)NC(=O)[C@H]([C@@H](C)O)NC(=O)[C@H](C(C)C)NC(=O)[C@H](CC2CCCCC2)NC(=O)[C@H](CCN)NC1=O [Compound 1385] ({CH2CO}-Y(Carboxymethyl)[Phe(4-COOH)]DWV[Bip]K[Orn][dL][Dab][Cha]VTCA-NH2; thioether N-14)
10 | 7.97 | CC(C)C[C@H]1NC(=O)[C@H](CCCN)NC(=O)[C@H](CCCN)NC(=O)[C@H](Cc2ccc(-c3ccccc3)cc2)NC(=O)[C@H](C(C)C)NC(=O)[C@H](Cc2c[nH]c3ccccc23)NC(=O)[C@H](CC(=O)O)NC(=O)[C@H](Cc2ccncc2)NC(=O)[C@H](CN)NC(=O)CSC[C@@H](C(=O)N[C@@H](C)C(N)=O)NC(=O)[C@H]([C@@H](C)O)NC(=O)[C@H](C(C)C)NC(=O)[C@H](CC2CCCCC2)NC(=O)[C@H](CCN)NC1=O [Compound 1386] ({CH2CO}-[Dap][4Pal]DWV[Bip][Orn][Orn][dL][Dab][Cha]VTCA-NH2; thioether N-14)
11 | 8.07 | CC(C)C[C@H]1NC(=O)[C@H](CCCN)NC(=O)[C@H](CCCCN)NC(=O)[C@H](Cc2ccc(-c3ccccc3)cc2)NC(=O)[C@H](C(C)C)NC(=O)[C@H](Cc2c[nH]c3ccccc23)NC(=O)[C@H](CC(=O)O)NC(=O)[C@H](Cc2ccncc2)NC(=O)[C@H](CN)NC(=O)CSC[C@@H](C(=O)N[C@@H](C)C(N)=O)NC(=O)[C@H]([C@@H](C)O)NC(=O)[C@H](C(C)C)NC(=O)[C@H](CC2CCCCC2)NC(=O)[C@H](CCN)NC1=O [Compound 1389] ({CH2CO}-[Dap][4Pal]DWV[Bip]K[Orn][dL][Dab][Cha]VTCA-NH2; thioether N-14)
12 | 7.78 | CC(C)C[C@H]1NC(=O)[C@H](CCCN)NC(=O)[C@H](CCCN)NC(=O)[C@H](Cc2ccc(-c3ccccc3)cc2)NC(=O)[C@H](C(C)C)NC(=O)[C@H](Cc2c[nH]c3ccccc23)NC(=O)[C@H](CC(=O)O)NC(=O)[C@H](Cc2ccc(OCC(=O)O)cc2)NC(=O)[C@H](Cc2ccncc2)NC(=O)CSC[C@@H](C(=O)N[C@@H](C)C(N)=O)NC(=O)[C@H]([C@@H](C)O)NC(=O)[C@H](C(C)C)NC(=O)[C@H](CC2CCCCC2)NC(=O)[C@H](CCN)NC1=O [Compound 1390]
13 | 8.30 | CC[C@H](C)[C@@H]1NC(=O)[C@H](Cc2ccc(-c3ccccc3)cc2)NC(=O)[C@H](C(C)C)NC(=O)[C@H](Cc2c[nH]c3ccccc23)NC(=O)[C@H](CC(=O)O)NC(=O)[C@H](Cc2ccc(OCC(=O)O)cc2)NC(=O)[C@H](CN)NC(=O)CSC[C@@H](C(=O)N[C@@H](C)C(N)=O)NC(=O)[C@H]([C@@H](C)O)NC(=O)[C@H](C(C)C)NC(=O)[C@H](CC2CCCCC2)NC(=O)[C@H](CCN)NC(=O)[C@@H](CC(C)C)NC(=O)[C@H](CCCN)NC1=O [Compound 1391]
14 | 8.00 | CC(C)C[C@@H]1NC(=O)[C@H](Cc2c[nH]c3ccccc23)NC(=O)[C@H](CC(=O)O)NC(=O)[C@H](Cc2ccncc2)NC(=O)[C@H](CN)NC(=O)CSC[C@@H](C(=O)NCC(N)=O)NC(=O)[C@H](CO)NC(=O)[C@H](C(C)C)NC(=O)[C@H](CC2CCCCC2)NC(=O)[C@H](CC(N)=O)NC(=O)[C@@H](CC(C)C)NC(=O)[C@H](CN)NC(=O)[C@H](C(C)C)NC(=O)[C@H](Cc2ccc(-c3ccccc3)cc2)NC1=O [Compound 1395] ({CH2CO}-[Dap][4Pal]DWL[Bip]V[Dap][dL]N[Cha]VSCG-NH2; thioether N-14)
15 | 7.67 | CC(C)C[C@@H]1NC(=O)[C@H](Cc2c[nH]c3ccccc23)NC(=O)[C@H](CC(=O)O)NC(=O)[C@H](Cc2ccncc2)NC(=O)[C@H](Cc2ccc(OCC(=O)O)cc2)NC(=O)CSC[C@@H](C(=O)NCC(N)=O)NC(=O)[C@H](CO)NC(=O)[C@H](C(C)C)NC(=O)[C@H](CC2CCCCC2)NC(=O)[C@H](CC(N)=O)NC(=O)[C@@H](CC(C)C)NC(=O)[C@H](CN)NC(=O)[C@H](C(C)C)NC(=O)[C@H](Cc2ccc(-c3ccccc3)cc2)NC1=O [Compound 1396] ({CH2CO}-Y(Carboxymethyl)[4Pal]DWL[Bip]V[Dap][dL]N[Cha]VSCG-NH2; thioether N-14)
16 | 7.79 | CCCC[C@@H]1NC(=O)[C@H](CC(N)=O)NC(=O)[C@@H](CC(C)C)NC(=O)[C@H](CN)NC(=O)[C@H](C(C)C)NC(=O)[C@H](Cc2ccc(-c3ccccc3)cc2)NC(=O)[C@H](CC(C)C)NC(=O)[C@H](Cc2c[nH]c3ccccc23)NC(=O)[C@H](CC(=O)O)NC(=O)[C@H](Cc2ccc(OCC(=O)O)cc2)NC(=O)[C@H](CN)NC(=O)CSC[C@@H](C(=O)NCC(N)=O)NC(=O)[C@H](CO)NC(=O)[C@H](C(C)C)NC1=O [Compound 1399] ({CH2CO}-[Dap]Y(Carboxymethyl)DWL[Bip]V[Dap][dL]N[Nle]VSCG-NH2; thioether N-14)
